PMC10265003 (Royal Society Open Science, 2023)
Positions of bridges follow the written chain, without caps; N, C: chain ends. Non-standard residues stand in square brackets, D forms with d. Residues, ends and D or L forms follow the SMILES beside them. Chains are numbered I, II in the order given. No end group written: not given here. 4Abz = Nc1ccc(C(=O)O)cc1; 2Abz = Nc1ccccc1C(=O)O; Ahx = NCCCCCC(=O)O

How the values were obtained:
MCF-7 breast cancer line = format: cell-based, human; conditions: 2 h
Description: (§1) The MTT assay was performed in accordance with previous reports. Briefly, the cells were seeded with a complete medium in 96-well plates at a rate of 10 000 cells and 100 µl per well, and adhesion to the plates was allowed for 24 h. Later, the complete medium was removed, and an incomplete medium was added for synchronization for another 24 h. The cells were then incubated at 37°C for 2 h with 100 µl of peptide at the evaluated concentrations (200, 100, 50, 25, 12.5 and 6.25 µg ml^−1). Next, the peptide was removed from the well and 100 µl of incomplete medium with 10% MTT was added and incubated for 4 h. The medium was replaced with 100 µl of isopropanol, and after 30 min of incubation at 37°C, the absorbance was measured at 575 nm. As a negative control, an incomplete culture medium with 10% MTT was used, and as a positive control, cells without MTT treatment were used. The IC50 value was determined from figure 1 (peptide concentration versus per cent cell viability) using a nonlinear regression model with variable slope and GraphPad Prism 9 statistical analysis software.

[1] = RP-HPLC retention time as measure of hydrophobicity; format: physicochemical; conditions: Chromolith RP-18e, water/ACN with 0.05% TFA, 5-50% B from 1 to 9 min, 2 ml min^−1, 210 nm, used as measure of hydrophobicity
Description: The peptides were analysed using a Hitachi Primaide-DAD 1110 chromatograph and a Chromolith RP-18e High Resolution column (100 × 4.1 i.d. mm) (Merck, Darmstadt, Germany). Water containing 0.05% TFA was used as solvent A, and ACN containing 0.05% TFA was used as solvent B. The elution programme used was […] at a flow rate of 2 ml min^−1 and a wavelength of 210 nm. Ten microlitres of each peptide solution was injected at an approximate concentration of […].

pepsin [2] = test: Pepsin dissolved in 0.010 M HCl (pH 2.0); peptides dissolved in H2O-TFA 0.05% (v/v); conditions: 37°C, up to 3 h
pepsin [3] = target: pepsin (Sus scrofa, UniProt P00791); conditions: pH 2
pepsin (Sus scrofa, UniProt P00791), sequence (P00791 60-385): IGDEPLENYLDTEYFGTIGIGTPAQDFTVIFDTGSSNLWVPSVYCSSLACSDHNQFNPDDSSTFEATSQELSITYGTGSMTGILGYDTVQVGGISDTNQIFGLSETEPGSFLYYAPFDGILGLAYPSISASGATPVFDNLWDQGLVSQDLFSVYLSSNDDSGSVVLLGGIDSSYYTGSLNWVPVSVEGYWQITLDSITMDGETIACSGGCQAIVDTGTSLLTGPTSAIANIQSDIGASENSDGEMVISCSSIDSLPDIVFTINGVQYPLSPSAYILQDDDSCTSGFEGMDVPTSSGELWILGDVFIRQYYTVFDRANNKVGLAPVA
Description: Pepsin was dissolved in 0.010 M HCl (pH 2.0). An aliquot of 50 µl was added to each peptide solution in a 1 : 100 (w/w) ratio. The peptides were dissolved in H2O-TFA 0.05% (v/v). This was incubated at 37°C for 3 h, aliquots were taken at 0 and 3 h, and the samples were heated for 5 min and then cooled at 4°C for the thermal inactivation of pepsin and characterized via HPLC and LC-MS.

human erythrocytes = format: cell-based
Description: Haemolysis assays were performed in accordance with Cárdenas et al.. The blood was donated by healthy volunteers with blood type O^+. First, 5 ml of peripheral blood in EDTA was centrifuged at 500 r.p.m. for 15 min, and the erythrocytes were separated and washed three times with 0.9% saline solution. Then 100 µl of peptide solution (final concentrations of 200 at 6.2 µg ml^−1) was mixed with 100 µl of erythrocytes (2% haematocrit) and incubated at 37°C for 2 h. It was then centrifuged at 2500 r.p.m. for 5 min and the absorbance of the supernatant was measured at 450 nm. Two controls were used; positive control: distilled water, and negative control: saline solution 0.9%.

CD1 mice = test: Peptide toxicity in vivo model (Irwin test, survival)
Description: Experiment 1. CD1 mice male (eight weeks old, weighing 33–35 g) were housed in groups of six animals per cage for each peptide ^26[F] and ^26[1-Nal]; three mice were inoculated by intraperitoneal via ip, and three mice were inoculated by subcutaneous via sc. Mice inoculated via ip or sc with saline solution were used as control. The peptide was dissolved in saline solution (7 mg ml^−1) and the mice were inoculated only one time with 0.33–0.35 ml (dosage 70 mg kg^−1) via ip or sc. Experiment 2. CD1 mice female (n = 4, eight weeks old, weighing 33–35 g) were inoculated only one time with peptide ^26[F] (dosage 140 mg kg^−1) or ^26[1-Nal] (8.8 to 70 mg kg^−1).
To determine the toxicity of peptides ^26[F] and ^26[1-Nal] in vivo model, a preliminary study was carried out in CD1 male mice. The Irwin test was used to evaluate in qualitative manner the effect of peptide administration over motor functions, behaviour, physiology and pharmacological safety in rodents. This test is used as a first approach to study of the adverse effects generated by a pharmaceutical treatment in an in vivo model in preclinical test.

trypsin = trypsin (Sus scrofa, UniProt P00761)
trypsin, sequence (P00761 9-231): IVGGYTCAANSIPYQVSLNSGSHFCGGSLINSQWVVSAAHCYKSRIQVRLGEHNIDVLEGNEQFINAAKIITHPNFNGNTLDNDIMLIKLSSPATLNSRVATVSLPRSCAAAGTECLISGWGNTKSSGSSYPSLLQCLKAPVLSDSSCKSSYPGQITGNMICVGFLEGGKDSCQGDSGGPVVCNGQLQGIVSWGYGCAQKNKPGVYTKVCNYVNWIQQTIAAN
Description: Trypsin (20 μg) was dissolved in 450 µl of the buffer supplied by the manufacturer, and 50 µl was added to each peptide solution, maintaining a protease : peptide ratio of 1 : 100 (w/w). The samples were incubated at 37°C for 24 h. Aliquots were taken at 0, 5, 10, 15 and 20 min, the enzymatic reaction was stopped by adding 1 M HCl, and the mixture was analysed via RP-HPLC and LC-MS. Bovine serum albumin (BSA) and bovine lactoferrin (bLF) were used as the positive control, and the negative control was the peptide in buffer solution without trypsin.

[4] = system: HeLa human cervical cancer cell line; format: cell-based; conditions: 2 h
Description: as §1

[5] = system: HEK-293 human kidney cell line; format: cell-based
Description: as §1, with “The cells were then incubated at 37°C for 2 h with 100 µl of peptide at the evaluated concentrations (200, 100, 50, 25, 12.5 and 6.25 µg ml^−1).” left out

[6] = system: human primary fibroblasts; format: cell-based
Source text: Rink amide resin, Fmoc-Arg(Pbf)-OH, Fmoc-Trp(Boc)-OH, Fmoc-Gln(Trt)-OH, Fmoc-Phe-OH, Fmoc-Lys(Boc)-OH, Fmoc-Leu-OH, Fmoc-Gly-OH, Fmoc-6-Ahx-OH, Fmoc-Lys(Fmoc)-OH, Triton-X, piperidine, N,N-dimethylformamide (DMF), dichloromethane (DCM), dicyclohexylcarbodiimide (DCC), 1-hydroxy-6-chloro-benzotriazole (6-Cl-HOBt), ninhydrin, potassium cyanide (KCN), ethanol, pyridine, phenol, trifluoroacetic acid (TFA), ethyl ether, triisopropylsilane (TIS), ethanedithiol (EDT), acetonitrile (ACN), methanol (MeOH) and solid phase extraction columns Supelco, Trypsin-EDTA solution and pepsin 2500 units mg^−1 were purchased from Sigma-Aldrich (St Louis, MO, USA). The non-natural amino acids diphenylalanine, 1-naphthyl-phenylalanine, 4-benzoyl-phenylalanine, homophenylalanine (hF), 4-(Fmoc-amino) benzoic acid (4-Abz) and 2-(Fmoc-amino) benzoic acid (2-Abz) were obtained from AAPPTec (Louisville, KY, USA). The cell lines MCF-7, HeLa, HEK-293 were purchased from ATCC (Manassas, VA). The primary cell culture of fibroblasts was obtained from the foreskin by the Laboratory of Cellular Physiology of the National University of Colombia, and the fibroblasts were cultured and frozen. Some vials were thawed and cultured for up to seven passes, since no transformation/immortalization was done. Annexin V and Alexa Fluor 488 conjugate was purchased from Invitrogen (Eugene, Oregon). The DMEM culture medium and trypsin were obtained from Sigma-Aldrich (St Louis, MO, USA). Bovine fetal serum was purchased from Gibco (Waltham, MA, USA). Calcium assay kit and Fluorescein CaspGLOW Active Caspase-8 or Caspase-9 Staining Kit were obtained for BD Biosciences (San Diego, CA, USA) and Invitrogen Thermo Fisher Scientific (Waltham, MA, USA), respectively.
as §1, with “The cells were then incubated at 37°C for 2 h with 100 µl of peptide at the evaluated concentrations (200, 100, 50, 25, 12.5 and 6.25 µg ml^−1).” left out

[7] = system: human breast cancer lines MDA-MB-468 and MDA-MB-231; conditions: 4 mg via intra-tumoural route, cited from earlier work
Description: Mice treated with peptide ^26[F] recovered completely after 24 h, and the survival rate was 100% after one week of observation. […] Peptide ^26[F] was inoculated in female mic ...

[8] = ratio of IC50 values, in brackets

## CC(C)C[C@H](NC(=O)[C@H](CCCCN)NC(=O)[C@H](CCCCN)NC(=O)c1ccc(NC(=O)[C@H](Cc2c[nH]c3ccccc23)NC(=O)[C@H](CCC(N)=O)NC(=O)[C@H](Cc2c[nH]c3ccccc23)NC(=O)[C@H](CCCNC(=N)N)NC(=O)[C@@H](N)CCCNC(=N)N)cc1)C(=O)NCC(=O)NCCCC[C@H](NC(=O)CNC(=O)[C@H](CC(C)C)NC(=O)[C@H](CCCCN)NC(=O)[C@H](CCCCN)NC(=O)c1ccc(NC(=O)[C@H](Cc2c[nH]c3ccccc23)NC(=O)[C@H](CCC(N)=O)NC(=O)[C@H](Cc2c[nH]c3ccccc23)NC(=O)[C@H](CCCNC(=N)N)NC(=O)[C@@H](N)CCCNC(=N)N)cc1)C(=O)NCCCCCC(N)=O [^26[4-Abz], (RRWQWR-4-Abz-KKLG)2-K-Ahx] (I: H-RRWQW[4Abz]KKLGK[Ahx]-NH2 / II: H-RRWQW[4Abz]KKLG; amide I:11-II:C; N-terminus assumed)
MCF-7 breast cancer line
  IC50: 49 µM
[1]
  tR: 5.9 min

## CC(C)C[C@H](NC(=O)[C@H](CCCCN)NC(=O)[C@H](CCCCN)NC(=O)c1ccccc1NC(=O)[C@H](Cc1c[nH]c2ccccc12)NC(=O)[C@H](CCC(N)=O)NC(=O)[C@H](Cc1c[nH]c2ccccc12)NC(=O)[C@H](CCCNC(=N)N)NC(=O)[C@@H](N)CCCNC(=N)N)C(=O)NCC(=O)NCCCC[C@H](NC(=O)CNC(=O)[C@H](CC(C)C)NC(=O)[C@H](CCCCN)NC(=O)[C@H](CCCCN)NC(=O)c1ccccc1NC(=O)[C@H](Cc1c[nH]c2ccccc12)NC(=O)[C@H](CCC(N)=O)NC(=O)[C@H](Cc1c[nH]c2ccccc12)NC(=O)[C@H](CCCNC(=N)N)NC(=O)[C@@H](N)CCCNC(=N)N)C(=O)NCCCCCC(N)=O [^26[2-Abz], (RRWQWR-2-Abz-KKLG)2-K-Ahx] (I: H-RRWQW[2Abz]KKLGK[Ahx]-NH2 / II: H-RRWQW[2Abz]KKLG; amide I:11-II:C; N-terminus assumed)
[1]
  tR: 5.9 min

## (RRWQWR-1-Nal-KKLG)2-K-Ahx
Pepsin [2]
  not cleaved: pepsin treatment for 3 h did not induce proteolytic degradation

## CC(C)C[C@H](NC(=O)[C@H](CCCCN)NC(=O)[C@H](CCCCN)NC(=O)[C@H](Cc1ccccc1)NC(=O)[C@H](CCCNC(=N)N)NC(=O)[C@H](Cc1c[nH]c2ccccc12)NC(=O)[C@H](CCC(N)=O)NC(=O)[C@H](Cc1c[nH]c2ccccc12)NC(=O)[C@H](CCCNC(=N)N)NC(=O)[C@@H](N)CCCNC(=N)N)C(=O)NCC(=O)NCCCC[C@H](NC(=O)CNC(=O)[C@H](CC(C)C)NC(=O)[C@H](CCCCN)NC(=O)[C@H](CCCCN)NC(=O)[C@H](Cc1ccccc1)NC(=O)[C@H](CCCNC(=N)N)NC(=O)[C@H](Cc1c[nH]c2ccccc12)NC(=O)[C@H](CCC(N)=O)NC(=O)[C@H](Cc1c[nH]c2ccccc12)NC(=O)[C@H](CCCNC(=N)N)NC(=O)[C@@H](N)CCCNC(=N)N)C(=O)NCCCCCC(N)=O [^26[F], (RRWQWR-F-KKLG)2-K-Ahx] (I: H-RRWQWRFKKLGK[Ahx]-NH2 / II: H-RRWQWRFKKLG; amide I:12-II:C)
MCF-7 breast cancer line
  IC50: 23 µM
  IC50 MCF-7: 79(23) µg mL^−1
Pepsin [3]
  proteolytic degradation by pepsin: degraded into two fragments
Human erythrocytes; 2 h
  IC50 erythrocytes: >200(>58) µg mL^−1
Human erythrocytes; ratio of IC50 values
  selectivity index IC50 erythrocytes/IC50 MCF-7: > 2.5
Human erythrocytes; [8]
  selectivity index IC50 erythrocytes/IC50 HeLa: > 8.3
CD1 mice; experiment 1, male CD1 mice, ip 70 mg kg^−1
  observed signs after ip administration (Irwin test): motor function decreased 30 min after peptide administration and abdominal contortions were observed
CD1 mice; experiment 1, male CD1 mice, single ip dose 70 mg kg^−1, n = 3, one week of observation
  survival (%) ip: 100%
CD1 mice; experiment 1, male CD1 mice, single sc dose 70 mg kg^−1, n = 3
  survival (%) sc: 100%
CD1 mice; experiment 2, female CD1 mice, single ip dose 140.0 mg kg^−1, n = 4
  survival (%) ip: 0%
CD1 mice; female mice, ip 140 mg kg^−1, after 30 min of treatment
  observed signs after ip administration: decreased motor function, abdominal contractions, excess irrigation, marked ataxia and loss of coordination
trypsin
  proteolytic degradation by trypsin, 5 min: two fragments were also generated
  proteolytic degradation by trypsin, 10 min: disappeared completely
[4]
  IC50 HeLa: 24(7) µg mL^−1
[5]; 2 h
  IC50 HEK-293: 203(59) µg mL^−1
[5]; ratio of IC50 values
  selectivity index IC50 HEK-293/IC50 MCF-7: 2.6
[5]; [8]
  selectivity index IC50 HEK-293/IC50 HeLa: 8.4
[6]; 2 h
  IC50 fibroblasts: 121(35) µg mL^−1
[6]; ratio of IC50 values
  selectivity index IC50 fibroblasts/IC50 MCF-7: 1.5
[6]; [8]
  selectivity index IC50 fibroblasts/IC50 HeLa: 5.0

## (RRWQWR-hF-KKLG)2-K-Ahx
Pepsin [2]
  not cleaved: pepsin treatment for 3 h did not induce proteolytic degradation

## Bovine lactoferricin (FKCRRWQWRMKKLGAPSITCVRRAF; ends and bridges not checked; cysteine pairing not given here; UniProt P24627 36-60, looked up) [LfcinB, 25-amino acid ACP generated by gastric pepsin digestion of bovine lactoferrin]
[7]; NOD-SCI-gamma mice
  safety on administration: safe
[7]; xenografts of MDA-MB-468 and MDA-MB-231 in NOD-SCI-gamma mice
  anti-tumoural effect: had anti-tumoural effect
